These results are taken from the supplement of paper PMC11616607.

Each structure is given as a SMILES string.

In one assay the test system is HOSE2C. In words: drug sensitivity score (DSS) from 5-point dose-response viability curve (DSS (area-under-curve based score)); higher = more sensitive (stronger growth inhibition or killing); extreme values may be limits of the assay. The note with it: exposure time: 72 h; concentration range: 5 concentrations over 10,000-fold range. Put shortly:
(§1)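 Ovarian cancer and normal ovarian cell lines were tested in 384-well plates, with drugs dispensed acoustically (Echo 550) in DMSO or water at five concentrations covering a 10,000-fold range. After 1,500 cells per well were added, plates were incubated for 3 days at 37°C and 5% CO2, and viability was read by CellTiter-Glo luminescence on a PHERAstar FS. Breeze software gave a drug sensitivity score for each cell line and drug, where a higher score means greater sensitivity. A value of zero means no response.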
Compound `CCc1cnn2c(NCc3ccc[n+]([O-])c3)cc(N3CCCC[C@H]3CCO)nc12` [Dinaciclib] showed a drug sensitivity score of 15.4.

As to `O=C(O)c1ccc(CN2CCC(CN[C@@H]3C[C@H]3c3ccccc3)CC2)cc1`, the drug sensitivity score is 0.

Take `CN1CCN(c2ccc(C(=O)Nc3n[nH]c4ccc(Cc5cc(F)cc(F)c5)cc34)c(NC3CCOCC3)c2)CC1` [Entrectinib]: the drug sensitivity score stood at 0.

For `O=c1[nH]c(=O)n([C@H]2C[C@H](O)[C@@H](CO)O2)cc1C(F)(F)F` [Trifluridine], the drug sensitivity score was 0.

In turn, `CCOC(=O)C1=CCCC[C@H]1S(=O)(=O)Nc1ccc(F)cc1Cl` [Resatorvid] returned a drug sensitivity score of 0.

In the case of `CN(Cc1cnc2nc(N)nc(N)c2n1)c1ccc(C(=O)N[C@@H](CCC(=O)O)C(=O)O)cc1` [Methotrexate], the drug sensitivity score turned out to be 13.2.

On to `CN1CCN(C2CCC(n3cc(-c4ccc(Oc5ccccc5)cc4)c4c(N)ncnc43)CC2)CC1` (configuration not stated), for which the drug sensitivity score worked out at 9.3.

On to `COc1cc2nccc(Oc3ccc(NC(=O)Nc4cc(C)on4)c(Cl)c3)c2cc1OC` [Tivozanib], for which the drug sensitivity score turned out to be 6.8.

`C[C@H]1C[C@@H](n2c(Nc3ccc(OC(F)(F)F)cc3)nc3cc(CCC(=O)O)ccc32)CC(C)(C)C1` registered a drug sensitivity score of 0.

For the compound `CN1CCN(C2CCN(C(=O)Nc3cc(Oc4ccc(NC(=O)C5(C(=O)Nc6ccc(F)cc6)CC5)c(F)c4)ccn3)CC2)CC1` [Golvatinib], the drug sensitivity score was found to be 0.

`Cc1cc([C@@H](C)Nc2ccccc2C(=O)O)c2nc(N3CCOCC3)cc(=O)n2c1` [AZD-6482] registered a drug sensitivity score of 1.2.

Take `CC1=C(/C=C/C(C)=C/C=C/C(C)=C/C(=O)O)C(C)(C)CCC1` [Tretinoin]: the drug sensitivity score was found to be 5.7.

`CC[C@H](Nc1ncnc2[nH]cnc12)c1nc2cccc(F)c2c(=O)n1-c1ccccc1` [Idelalisib] gave a drug sensitivity score of 1.

Compound `O=c1[nH]cc(F)c(=O)[nH]1` [Fluorouracil] yielded a drug sensitivity score of 0.

In the case of `O=C(NOCCO)c1ccc2cncn2c1Nc1ccc(I)cc1F` [GDC-0623], the drug sensitivity score worked out at 1.3.

`CC(C)[C@H](C(=O)Nc1ccc(C(=O)NO)cc1)c1ccccc1` [AR-42] came in with a drug sensitivity score of 16.9.

The subject of a further assay is JHOS2. The description is as above. The conditions noted are these: exposure time: 72 h; concentration range: 5 concentrations over 10,000-fold range. Put shortly:
as §1
In turn, `COc1c(C)cnc(Cn2cnc3c(Cl)nc(N)nc32)c1C` [BIIB021] returned a drug sensitivity score of 20.6.

In turn, `CO[C@@H]1[C@H](N(C)C(=O)c2ccccc2)C[C@H]2O[C@]1(C)n1c3ccccc3c3c4c(c5c6ccccc6n2c5c31)C(=O)NC4` [Midostaurin] came in with a drug sensitivity score of 9.7.

With `COc1ccc(S(=O)(=O)Nc2cccnc2Nc2ccc(O)cc2)cc1` [ABT-751], the drug sensitivity score came to 7.1.

For the compound `COc1cc2ncnc(Nc3cccc(Cl)c3F)c2cc1OC(=O)N1CCN(C)C[C@H]1C` [AZD3759], the drug sensitivity score stood at 0.2.

In turn, `C[C@H]1CN(C2COC2)CCN1c1ccc(Nc2cc(-c3ccnc(N4CCn5c(cc6c5CC(C)(C)C6)C4=O)c3CO)cn(C)c2=O)nc1` [GDC-0853] yielded a drug sensitivity score of 0.

Consider `CCCOc1ccn2c(C(C)=O)cc(-c3ccccc3S(C)(=O)=O)c2c1` [GSK2801], for which the drug sensitivity score turned out to be 0.

`CC(C)N(CCCNC(=O)Nc1ccc(C(C)(C)C)cc1)C[C@H]1O[C@@H](n2cc(Br)c3c(N)ncnc32)[C@H](O)[C@@H]1O` [SGC0946]: the drug sensitivity score is 0.

`Cc1ccc(-n2nc(C(C)(C)C)cc2NC(=O)Nc2ccc(OCCN3CCOCC3)c3ccccc23)cc1` [Doramapimod] came in with a drug sensitivity score of 0.

`CO[C@@H](C)Cn1c(=O)n(C)c2cnc3ccc(-c4cncc(C(C)(C)O)c4)cc3c21` showed a drug sensitivity score of 7.8.

`C[C@@H]1C[C@H]2[C@@H]3CCC4=CC(=O)C=C[C@]4(C)[C@@]3(F)[C@@H](O)C[C@]2(C)[C@@]1(O)C(=O)CO` [Dexamethasone] showed a drug sensitivity score of 0.

With `CN1CCN(c2nc(C3=C(c4c[nH]c5ccccc45)C(=O)NC3=O)c3ccccc3n2)CC1` [Sotrastaurin], the drug sensitivity score was determined as 0.2.

`Cc1cc(F)c(C(=O)Nc2cccc(-c3nncn3C(C)C)n2)cc1-n1cnc(C2CC2)c1` [Selonsertib] displayed a drug sensitivity score of 0.

In the case of `O=C(/C=C\n1cnc(-c2cc(C(F)(F)F)cc(C(F)(F)F)c2)n1)NNc1ccccn1` [Verdinexor], the drug sensitivity score was 7.

`Cn1nnc2c(C(N)=O)ncn2c1=O` [Temozolomide]: the drug sensitivity score was found to be 0.

In turn, `NC(=O)N1CCC(CC(=O)N2CCC([C@H]3c4ncc(Br)cc4CCc4cc(Cl)cc(Br)c43)CC2)CC1` [Lonafarnib] registered a drug sensitivity score of 8.4.

On to `CCc1cnn2c(NCc3ccc[n+]([O-])c3)cc(N3CCCC[C@H]3CCO)nc12` [Dinaciclib], for which the drug sensitivity score was 19.

Turning to `O=C(O)c1ccc(CN2CCC(CN[C@@H]3C[C@H]3c3ccccc3)CC2)cc1`, the drug sensitivity score is 0.

On to `CN1CCN(c2ccc(C(=O)Nc3n[nH]c4ccc(Cc5cc(F)cc(F)c5)cc34)c(NC3CCOCC3)c2)CC1` [Entrectinib], for which the drug sensitivity score is 0.

The compound `O=c1[nH]c(=O)n([C@H]2C[C@H](O)[C@@H](CO)O2)cc1C(F)(F)F` [Trifluridine] yielded a drug sensitivity score of 0.6.

For `CCOC(=O)C1=CCCC[C@H]1S(=O)(=O)Nc1ccc(F)cc1Cl` [Resatorvid], the drug sensitivity score came to 0.

The compound `CN(Cc1cnc2nc(N)nc(N)c2n1)c1ccc(C(=O)N[C@@H](CCC(=O)O)C(=O)O)cc1` [Methotrexate] registered a drug sensitivity score of 6.5.

Compound `CN1CCN(C2CCC(n3cc(-c4ccc(Oc5ccccc5)cc4)c4c(N)ncnc43)CC2)CC1` (configuration not stated) yielded a drug sensitivity score of 7.1.

With `COc1cc2nccc(Oc3ccc(NC(=O)Nc4cc(C)on4)c(Cl)c3)c2cc1OC` [Tivozanib], the drug sensitivity score was determined as 0.2.

`C[C@H]1C[C@@H](n2c(Nc3ccc(OC(F)(F)F)cc3)nc3cc(CCC(=O)O)ccc32)CC(C)(C)C1` came in with a drug sensitivity score of 0.

Turning to `CN1CCN(C2CCN(C(=O)Nc3cc(Oc4ccc(NC(=O)C5(C(=O)Nc6ccc(F)cc6)CC5)c(F)c4)ccn3)CC2)CC1` [Golvatinib], the drug sensitivity score was determined as 0.

Compound `Cc1cc([C@@H](C)Nc2ccccc2C(=O)O)c2nc(N3CCOCC3)cc(=O)n2c1` [AZD-6482] returned a drug sensitivity score of 0.

Regarding `CC1=C(/C=C/C(C)=C/C=C/C(C)=C/C(=O)O)C(C)(C)CCC1` [Tretinoin], the drug sensitivity score was found to be 0.5.

`CC[C@H](Nc1ncnc2[nH]cnc12)c1nc2cccc(F)c2c(=O)n1-c1ccccc1` [Idelalisib]: the drug sensitivity score is 0.9.

`O=c1[nH]cc(F)c(=O)[nH]1` [Fluorouracil] yielded a drug sensitivity score of 0.

As for `O=C(NOCCO)c1ccc2cncn2c1Nc1ccc(I)cc1F` [GDC-0623], the drug sensitivity score came to 0.6.

Turning to `CC(C)[C@H](C(=O)Nc1ccc(C(=O)NO)cc1)c1ccccc1` [AR-42], the drug sensitivity score was determined as 7.8.
